In US20220040166A1, “Methods and Compositions of Treating an Ophthalmic Condition” (KARTOS THERAPEUTICS, priority 2018, published 2022):
Converted amounts (≈) assume the structure as drawn. Marks after values point to notes of the source that are not given here.

Key:
[1] = In vitro release of Comp-A from nanoparticles by dialysis against HBS (pH 7) at 37° C.; assay type: physicochemical; conditions: dialyzed against >1000X volume HBS (pH 7) at 37° C.
Description: • 5. Immediately following formulation, NPs were diluted to 4× volume in HBS. • 6. Pall 30 kDa MWCO centrifugal filters were used for solvent exchange to HBS and to concentrate formulations (2000×g, 21° C.). • 7. Particle size and polydispersity index (PDI) were analyzed using a Malvern Zetasizer (dynamic light scattering; DLS). […] Final formulations were sterile filtered through 0.22 μm syringe filters and stored at −80° C. in MrFrosty freezing containers. The following day formulations were moved to cryogenic freezer boxes for storage prior to shipping. • 9. A sample of each formulation was thawed to room temperature and dialyzed against >1000 volumes of 1×HBS (pH 7) at 37° C. for 6 hours. Samples were collected at 2 mins, 30 mins, 2 hours and 6 hours and analyzed for drug content by UPLC to determine particle release characteristics.

[2] = Tolerability of intravitreally administered solution of the compound of Formula (I)
Description: Based on expected solubility, a maximum feasible intravitreal dose of 44 μg of the compound of Formula (I) in 50 uL pH 7.85 aqueous buffer (sterile saline for injection, phosphate buffered saline or HEPES buffered saline) was administered to Dutch Belted rabbits.
Ophthalmoscopic examinations (slit lamp), ocular scoring, and intraocular pressure were observed through 5 days post-administration.

[3] = tested on: MDM2-amplified tumor cell line SJSA; assay: Induction of p21 mRNA by Comp-A in SJSA cells; assay type: cell-based
[4] = 44 μg in 50 uL pH 7.85 aqueous buffer, intravitreal, rabbit

In the case of `CC(C)[C@@H](CS(=O)(=O)C(C)C)N1C(=O)[C@@](C)(CC(=O)O)C[C@H](c2cccc(Cl)c2)[C@H]1c1ccc(Cl)cc1` [Comp-A, 2-((3R,5R,6S)-5-(3-chlorophenyl)-6-(4-chlorophenyl)-1-((S)-1-(isopropylsulfonyl)-3-methylbutan-2-yl)-3-methyl-2-oxopiperidin-3-yl) Acetic Acid], the “% Release after 2 h dialysis” value ([1]; 2 h) is reported as less than 1%, the “% Release after 6 h dialysis” value ([1]; 6 h) is reported as 0* % and the “Changes in intra-ocular pressure” value [2, 4] is reported as “no changes”. For the same compound, the “Ophthalmologic observations through 5 days” value [2, 4] was “no ophthalmologic observations”, the Tolerability ([2]; 22 microgram/eye in PBS (1×) and in HEPES buffered saline) was “no findings” and the Tolerability ([2]; 44 microgram/eye in PBS (1×) and in HEPES buffered saline) was “no findings”. It also gave an EC50 [3] of 0.0262 µg/mL (≈ 0.0461 µM).
